Patent US20260139017A1, “COMPOSITIONS AND METHODS USING REELIN IN ALZHEIMER'S DISEASE” (The General Hospital Corporation, priority 2022, published 2026)
“Also recorded” adds a separate entry of the source.

What was measured:
[1] = Heparin-sepharose affinity column chromatography, NaCl step gradient; format: binding
Protocol: We tested changes in binding to heparin of RELN variants chromatographically using an optimized version of a protocol previously published by our laboratory (1). Briefly, after equilibration of the heparin column (BioVision 6554-1) at R.T., columns were washed with five volumes of degassed 20 mM TRIS-HCl buffer (pH 7.5). Recombinant C-terminus RELN peptides were produced and purified by Innovagen (Sweden): (WT) […](SEQ ID NO:56), and (H3447R) […](SEQ ID NO:53). One mL of 50 μg/mL peptide (H3447 or WT, and H3447R) was recycled through the column five times and the last flow through collected for further analysis. The column was washed five times with the same buffer and the protein eluted using a 0.05 M step gradient of NaCl in 20 mM Tris-HCl (0-1M, one mL per fraction). To ensure the complete release of the protein, the column was washed with five M NaCl 20 mM Tris-HCl. Three independent experiments were conducted for C-terminus RELN WT and H3447R. All eluted fractions were analyzed spectroscopically by reading the absorbance at 280 nm using Nanodrop 2000 Spectrophotometer. Blank corrected fractions were subsequently analyzed using GraphPad Prism 8.
To assess Reelin-heparin binding affinity, Reelin variants were run on a heparin column with steps of 0.05M in a range of 0.05-1M NaCl over 20 1 mL column volumes in 20 mM Tris HCl, as described in Arboleda et. al 2019 (2). Sample fractions were eluted at an increasing NaCl step size to determine the ionic strength needed to disrupt the binding between Reelin and heparin. Therefore, the stronger the interaction, the higher concentration of salt would be needed to disrupt the bond.

VLDLr = target: T1, VLDLr (Homo sapiens, UniProt P98155); assay: ELISA cell-free binding of RELN variants to VLDLr
T1 construct: purchased R&D 8444-VL
Protocol: Enzyme-linked immunosorbent assay (ELISA) was used to quantify changes in binding of RELN variants (media-derived full-length or CTR-RELN) to either VLDLr or ApoEr2 following an optimized version of a previously published protocol (6). Briefly, ELISA strips (DY008, R&D Systems) were coated with one ng/μL (100 μL/well) of VLDLr (8444-VL, R&D) or ApoEr2 (TP320903, OnGene) receptors diluted in 25 mM Tris HCl, 140 mM NaCl, […], two mM CaCl2), pH 7.4 (TBS-C buffer). After 18 h at four ° C. incubation, plates were blocked one h with three % BSA (22070008-6, Bioworld), 0.05% Tween-20 (Sigma Aldrich) TBS-C buffer. We assessed binding via incubation with 100 μL/well of serial dilutions of recombinant RELN protein (Ser1221-Gln2666, 8546-MR-050, R&D) or RELN variants in TBS-C buffer for one hour at room temperature. For detection, we used goat anti-mouse RELN primary antibody (LS-C793521-100, LS-Bio, 1:2,000, 100 μL/well) as primary antibody for one h at R.T. and (1:10,000; 100 μL/well, donkey anti-goat IgG H&L, HRP, ab6885, Abcam) as secondary antibody for 30 min. at R.T. Between each of the previous steps, plates were washed four times with TBS-C buffer (200 μL/well). Plates were washed three times prior to initiating the colorimetric reaction (DY008, R&D Systems). Stop solution (50 μL/well, DY008, R&D Systems) was added upon five min. incubation and the absorbance of the samples was measured at 450 nm using the Synergy 2 microplate reader (BioTek Instruments). Processing and analysis of the data was done using Gen5 1.11 software and GraphPad Prism, respectively.

binding to VLDLr (VLDLr): unable to bind directly
Sequence: RKQNYMMNFSRQHGLRRFYNRRRRSLRRYP [CTR-RELN H3447R]
NaCl concentration of peak eluted fraction from heparin column ([1]; 0.05 M NaCl step gradient in 20 mM Tris HCl, UV 280 nm): 0.7 M NaCl | binding to and release from heparin column ([1]; affinity chromatography, NaCl gradient): bound to heparin; also recorded: required higher NaCl salt concentrations to be released
